In this assay the test system is Vibrio percolans ATCC 8461. Description: Assay procedure for 890 Assay Units, disc-diffusion with cephaloridine standard. It is filed as cell-based. On the procedure: A conventional agar plate disc-diffusion method is employed using Vibrio percolans ATCC 8461 as tester organism. Cephaloridine is employed as a standard. Plates containing Vibrio percolans ATCC 8461 are prepared as follows. A culture of Vibrio percolans ATCC 8461 is incubated in nutrient broth-yeast extract overnight on a rotary shaker at 28° C. and then diluted to a density of 60% transmittance at 660 nm. A 33.2 ml. portion of this diluted culture is added to 1 liter of a medium composed of nutrient agar plus 0.2% yeast extract maintained at 46° C. The inoculated agar-containing medium is poured into 100 × 15 mm. plastic-petri dishes, 10 ml. per dish, chilled, and maintained at 2°-4° C. for up to 5 days before use.
The concentration of cephaloridine which is equivalent to 1 unit/ml. of 890A is deterined by assay on plates prepared as above, but containing 5 ml. of inoculated medium per plate, as follows. Four concentrations of cephaloridine constitute the standard -- 3.12, 6.25, 12.5 and 25 mcg per ml. with the 12.5 mcg per ml. as a reference solution. The zone diameters on a 5 ml. plate for the standard are as follows:
A unit is defined as the amount of antibiotic per ml. producing a 25 mm. zone of inhibition on a 5 ml. plate as described in section I above. Therefore, in this assay a concentration of 2.5 mcg per ml. of cephaloridine is considered equivalent to 1 unit of 890A per ml. Since the slope of the line for cephaloridine is 4.0 calculations of the potency of a sample are made using a slope of 4.0.
In general terms: Agar diffusion results depend on both activity and mobility in agar.

With `O=C(Cc1cccs1)N[C@@H]1C(=O)N2C(C(=O)[O-])=C(C[n+]3ccccc3)CS[C@H]12` [cephaloridine, Cephaloridine], the “concentration considered equivalent to 1 unit of 890A per ml.” value (25 mm. zone of inhibition on a 5 ml. plate) turned out to be 2.5 mcg per ml. The zone of inhibition at 3.12 µg/mL (Comamonas terrigena, ATCC8461, 3.12 mcg./ml., 5 ml. plate, read-out: Zone Diameter) turned out to be 16.8 mm. For the same compound, the zone of inhibition at 6.25 µg/mL (Comamonas terrigena, ATCC8461, 6.25 mcg./ml., 5 ml. plate, read-out: Zone Diameter) was found to be 22.3 mm. For the same compound, under “Comamonas terrigena, ATCC8461, 12.5 mcg./ml., 5 ml. plate, read-out: Zone Diameter”, the zone of inhibition at 12.5 µg/mL turned out to be 25 mm. For the setting “Comamonas terrigena, ATCC8461, 25 mcg./ml., 5 ml. plate, read-out: Zone Diameter”, the zone of inhibition at 25 µg/mL worked out at 29.6 mm. Besides, the “slope of the line” value (zone diameter against concentration of the standard) was found to be 4.0.

Values taken from patent US4141986A, “Antibiotics 890A2 and 890A5” (Merck & Co., Inc., priority 1977, dated 1979).
